Data as given in patent publication US9975861B2, “Dual inhibitor compounds for use in the treatment of neurodegenerative disorders and alzheimer's disease” (FONDAZIONE ISTITUTO ITALIANO DI TECNOLOGIA, priority 2014, dated 2018).

What was measured:
[1] = tested on: neurosphere cultures of primary rat neural stem cells; assay: Neurosphere cultures, immunocytochemistry for neural markers; format: cell-based; details: 10 μM during a week; compared to control (FIG. 3)
Excerpt: Neurosphere (NS) cultures were derived from the hippocampus of adult rats and induced to proliferate using established passaging methods to achieve optimal cellular expansion according to published protocols [Ferron, S. R.; Andreu-Agullo, C.; Mira, H.; Sanchez, P.; Marques-Torrejon, M. A.; Farinas, I. A combined ex/in vivo assay to detect effects of exogenously added factors in neural stem cells. Nature Protoc. 2007, 2, 849-859]. Rats were decapitated, brains removed, and the hippocampus dissected as described [Morales-Garcia, J. A.; Luna-Medina, R.; Alfaro-Cervello, C.; Cortes-Canteli, M.; Santos, A.; Garcia-Verdugo, J. M.; Perez-Castillo, A. Peroxisome proliferator-activated receptor gamma ligands regulate neural stem cell proliferation and differentiation in vitro and in vivo. Glia 2011, 59, 293-307]. Briefly, cells were seeded into 12-well dishes and cultured in DMEM/F12 (1:1, Invitrogen) containing 10 ng/mL epidermal growth factor (EGF, Peprotech, London, UK), 10 ng/mL fibroblast growth factor (FGF, Peprotech), and B27 medium (Gibco). After 3 days in culture, NS were cultivated in the presence or absence of the indicated compounds (10 μM) during a week. After that, NS from 10-day old cultures were plated for 72 hours onto 100 μg/mL poly-L-lysine-coated coverslips in the absence of exogenous growth factors.
Neurogenesis is a crucial property for new AD-modifying drugs, since it confers the potential to increase endogenous regeneration as a repair mechanism in the damaged brain, and reduce neuronal loss and degeneration. Considering that GSK-3β inhibition is reported to regulate and increase neurogenesis [Lange, C.; Mix, E.; Frahm, J.; Glass, A.; Muller, J.; Schmitt, O.; Schmole, A. C.; Klemm, K.; Ortinau, S.; Hubner, R.; Frech, M. J.; Wree, A.; Rolfs, A. Small molecule GSK-3 inhibitors increase neurogenesis of human neural progenitor cells. Neurosci. […]

Human recombinant GSK-3β = Human recombinant GSK-3β (Homo sapiens (Human), UniProt P49841); assay: Inhibition of GSK-3β (Kinase-Glo luminescent kinase assay); format: biochemical; details: 1 μM ATP, 25 μM substrate, 30 minutes at 30° C.
Human recombinant GSK-3β, sequence (P49841 whole entry): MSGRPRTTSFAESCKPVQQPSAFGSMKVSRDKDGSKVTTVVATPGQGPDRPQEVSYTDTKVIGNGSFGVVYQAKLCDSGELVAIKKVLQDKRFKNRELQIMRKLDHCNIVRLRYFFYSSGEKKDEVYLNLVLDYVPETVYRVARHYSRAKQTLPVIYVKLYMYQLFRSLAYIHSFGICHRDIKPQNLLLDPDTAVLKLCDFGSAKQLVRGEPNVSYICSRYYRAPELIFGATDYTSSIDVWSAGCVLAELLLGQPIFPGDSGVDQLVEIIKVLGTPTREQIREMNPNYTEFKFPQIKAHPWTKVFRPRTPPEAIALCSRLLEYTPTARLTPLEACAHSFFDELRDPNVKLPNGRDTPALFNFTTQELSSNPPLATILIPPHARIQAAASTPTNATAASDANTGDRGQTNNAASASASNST
Experimental: Human recombinant GSK-3β was purchased from Millipore (Millipore Iberica S.A.U.) The prephosphorylated polypeptide substrate was purchased from Millipore (Millipore Iberica SAU). Kinase-Glo Luminescent Kinase Assay was obtained from Promega (Promega Biotech Iberica, SL). ATP and all other reagents were from Sigma-Aldrich. Assay buffer contained 50 mM 4-(2-hydroxyethyl)-1-piperazineethanesulfonic acid (HEPES) (pH 7.5), 1 mM ethylenediaminetetraacetic acid (EDTA), 1 mM ethylene glycol tetraacetic acid (EGTA), and 15 mM magnesium acetate. The method developed by Baki was followed [Baki et al. Assay and Drug Development Technologies 2007, 5(1),75-83] to analyze the inhibition of GSK-3β. Kinase-Glo assays were performed in assay buffer using white 96-well plates. In a typical assay, 10 μL (10 μM) of test compound (dissolved in DMSO at 1 mM concentration and diluted in advance in assay buffer to the desired concentration) and 10 μL (20 ng) of enzyme were added to each well followed by 20 μL of assay buffer containing 25 μM substrate and 1 μM adenosine triphosphate (ATP). […] After a 30 minutes incubation at 30° C., the enzymatic reaction was stopped with 40 μL of Kinase-Glo reagent. Glow-type luminescence was recorded after 10 minutes using a Fluoroskan Ascent multimode reader.
The activity is proportional to the difference of the total and consumed ATP.

β-secretase (BACE-1) = β-secretase (BACE-1) (Homo sapiens (Human), UniProt P56817); assay: Inhibition of BACE-1 (fluorogenic APP-mimicking peptide substrate); details: BACE-1 IC50 (μM), substrate 3 μM, 1 hour pre-incubation at rt, 15 minutes at 37° C.
β-secretase (BACE-1), sequence (P56817 46-501): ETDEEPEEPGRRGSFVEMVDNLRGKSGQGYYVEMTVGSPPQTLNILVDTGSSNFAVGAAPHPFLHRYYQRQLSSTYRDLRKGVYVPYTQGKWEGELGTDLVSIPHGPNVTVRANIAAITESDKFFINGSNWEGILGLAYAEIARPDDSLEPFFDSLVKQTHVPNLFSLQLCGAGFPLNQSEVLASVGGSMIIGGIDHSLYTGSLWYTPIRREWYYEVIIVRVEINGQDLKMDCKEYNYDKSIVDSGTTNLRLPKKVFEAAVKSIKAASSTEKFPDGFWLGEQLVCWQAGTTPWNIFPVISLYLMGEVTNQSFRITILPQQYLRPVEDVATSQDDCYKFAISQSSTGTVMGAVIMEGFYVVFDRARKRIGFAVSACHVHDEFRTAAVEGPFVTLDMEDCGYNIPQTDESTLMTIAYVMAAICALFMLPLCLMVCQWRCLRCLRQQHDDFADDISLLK
Experimental: β-secretase (BACE-1, Sigma-Aldrich) inhibition studies were performed by employing a peptide mimicking APP sequence as substrate (Methoxycoumarin-[sequence]dinitrophenyl, M-2420, Bachem, Germany). The following procedure was employed: 5 μL of test compounds (or DMSO, if preparing a control well) were pre-incubated with 175 μL of enzyme (in 20 mM sodium acetate containing 3-[(3-Cholamidopropyl)dimethylammonio]-1-propanesulfonate (CHAPS) 0.1% w/v) for 1 hour at rt. The substrate (3 μM, final concentration) was then added and left to react for 15 minutes at 37° C. The fluorescence signal was read at λem=405 nm (λexc=320 nm) using a Fluoroskan Ascent. […] The fluorescence intensities with and without inhibitor were compared and the percent inhibition due to the presence of test compounds was calculated. The background signal was measured in control wells containing all the reagents, except BACE-1 and subtracted. The % inhibition due to the presence of increasing test compound concentration was calculated by the following expression: 100−(IFi/IFo×100) where IFi and IFo are the fluorescence intensities obtained for BACE-1 in the presence and in the absence of inhibitor, respectively. […] The linear regression parameters were determined and the IC50 extrapolated (GraphPad Prism 4.0, GraphPad Software Inc.).

[2] = tested on: primary astrocytes and microglial cells; assay: Nitrites measurement (Griess reaction) in LPS-stimulated primary glial cells; format: cell-based, rat; details: compounds 10 μM for 1 hour, then LPS 10 μg/mL for 24 hours; astrocytes and microglia; potency compared with 6-amino triazinones A-C (FIGS. 2A, 2B)
Experimental: Astrocytes were prepared from neonatal (P2) rat cerebral cortex, as previously described by Luna-Medina et al. [Luna-Medina, R.; Cortes-Canteli, M.; Alonso, M.; Santos, A.; Martinez, A.; Perez-Castillo, A. Regulation of inflammatory response in neural cells in vitro by thiadiazolidinones derivatives through peroxisome proliferator-activated receptor gamma activation. J. Biol. Chem. 2005, 280, 21453-21462].
Briefly, after removal of the meninges, the cerebral cortex was dissected, dissociated, and incubated with 0.25% trypsin/EDTA at 37° C. for 1 hour. After centrifugation, the pellet was washed 3 times with Hank's balanced salt solution (HBSS) (Gibco) and the cells were placed on noncoated flasks and maintained in HAMS/Dulbecco's modified eagle's medium (DMEM) (1:1) medium containing 10% of fetal bovine serum (FBS). After 15 days, the flasks were agitated on an orbital shaker for 4 hours at 240 rpm at 37° C., the supernatant was collected, centrifuged, and the cellular pellet containing the microglial cells resuspended in complete medium (HAMS/DMEM (1:1) containing 10% FBS) and seeded on uncoated 96-well plates. Cells were allowed to adhere for 2 hours, and the medium was removed to eliminate nonadherent oligodendrocytes. New fresh medium containing 10 ng/mL of granulocyte-macrophage colony-stimulating factor (GM-CSF) was added. The remaining astroglial cells adhered on the flasks were then trypsinized, collected, centrifugated, and plated onto 96-well plates with complete medium. The purity of cultures obtained by this procedure was >98% as determined by immunofluorescence with the OX42 (microglial marker) and the glial fibrillary acidic protein (GFAP, astroglial marker) antibodies.
The potential anti-inflammatory activity of the selected compounds was tested by evaluating the production of nitrites from primary cultured glial cells. Primary cultures of astrocytes and microglia were incubated with the selected compounds (10 μM) for 1 hour, and then cells were cultured for another 24 hours with a potent inflammatory agent, such as lipopolysaccharide (LPS) (10 μg/mL). LPS is able to induce nitrite production and accumulation in the culture medium, which was assayed by the standard Griess reaction. Supernatants were collected from the media and mixed with an equal volume of Griess reagent (Sigma). Samples were then incubated at rt for 15 minutes and absorbance read using a plate reader at 492/540 nm.

Q: Which “number of MAP-2 positive cells (mature neuronal marker)” value [1] does the source give for `NC1=NC(c2ccc(F)cc2)NC(=O)N1` (centres unmarked) [Compound A, reference compound] here?
A: Its value is “only a marginal increase”.

Q: What does the source list for `CCNC1=NC(c2ccccc2C)NC(=O)N1` (centres unmarked) [Example 2, 6-(ethylamino)-4-(o-tolyl)-3,4-dihydro-1,3,5-triazin-2(1H)-one]?
A: IC50 (Human recombinant GSK-3β): 40.7 ± 2.7 µM; IC50 (β-secretase (BACE-1)): 50.3 ± 6.61 µM

Q: Which IC50 (Human recombinant GSK-3β) does the source give for `O=C1NC(Nc2ccccc2)=NC(c2ccc(F)cc2)N1` (centres unmarked) [Example 9, 4-(4-fluorophenyl)-6-(phenylamino)-3,4-dihydro-1,3,5-triazin-2(1H)-one] here?
A: The IC50 was 6.93 ± 0.14 µM.

Q: And the “reduction of LPS-induced nitrite production” value [2]?
A: The value was “higher potency”.
